One may read the IC50 as the concentration at which inhibition is half-maximal.

SMILES strings stand for the structures. Like-named read-outs stand apart in the source and are kept apart here. Some results are limits rather than exact numbers.

Holding throughout (format): biochemical
One assay has as its target T1, hepsin (Homo sapiens, UniProt P05981).
T1 construct: purchased R&D Systems 4776-SE-010
Description: Fluorogenic kinetic enzyme inhibitor assay, hepsin.

Another assay concerns the target T2, HGFA (Homo sapiens, UniProt Q04756).
T2 construct: purchased R&D Systems 1514-SE-010
T2 sequence (Q04756 408-655 limits assumed): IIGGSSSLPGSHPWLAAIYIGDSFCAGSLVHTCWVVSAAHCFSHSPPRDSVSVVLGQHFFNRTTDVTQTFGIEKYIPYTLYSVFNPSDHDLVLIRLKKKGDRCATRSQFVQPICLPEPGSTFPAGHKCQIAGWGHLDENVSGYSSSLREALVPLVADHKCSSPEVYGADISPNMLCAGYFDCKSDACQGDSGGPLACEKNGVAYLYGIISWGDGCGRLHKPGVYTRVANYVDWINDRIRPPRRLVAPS
T2 sequence (Q04756 373-407 partner limits assumed): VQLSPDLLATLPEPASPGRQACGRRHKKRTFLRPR
The assay is described as follows: Fluorogenic kinetic enzyme inhibitor assay, HGFA. The note with it: read-out: HGFA IC50.

For the next assay, the target named is T3, matriptase (Homo sapiens, UniProt Q9Y5Y6).
T3 construct: purchased R&D Systems 3946-SEB-010
T3 sequence (Q9Y5Y6 615-855 limits assumed): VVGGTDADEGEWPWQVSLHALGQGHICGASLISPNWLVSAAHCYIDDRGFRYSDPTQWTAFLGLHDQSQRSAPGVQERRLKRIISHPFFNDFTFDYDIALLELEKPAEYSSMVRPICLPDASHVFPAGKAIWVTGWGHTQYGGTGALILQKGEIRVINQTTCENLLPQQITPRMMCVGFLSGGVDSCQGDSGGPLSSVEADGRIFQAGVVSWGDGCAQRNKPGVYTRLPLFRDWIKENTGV
The assay is described as follows: Fluorogenic kinetic enzyme inhibitor assay, matriptase.

A further assay has as its target TMPRSS2 (Homo sapiens, UniProt O15393). Description: Fluorogenic kinetic enzyme inhibitor assay, TMPRSS2. Details: purchased Cusabio Technology CSB-YP023924HU.

Sequence of TMPRSS2 (O15393 106-492 limits assumed): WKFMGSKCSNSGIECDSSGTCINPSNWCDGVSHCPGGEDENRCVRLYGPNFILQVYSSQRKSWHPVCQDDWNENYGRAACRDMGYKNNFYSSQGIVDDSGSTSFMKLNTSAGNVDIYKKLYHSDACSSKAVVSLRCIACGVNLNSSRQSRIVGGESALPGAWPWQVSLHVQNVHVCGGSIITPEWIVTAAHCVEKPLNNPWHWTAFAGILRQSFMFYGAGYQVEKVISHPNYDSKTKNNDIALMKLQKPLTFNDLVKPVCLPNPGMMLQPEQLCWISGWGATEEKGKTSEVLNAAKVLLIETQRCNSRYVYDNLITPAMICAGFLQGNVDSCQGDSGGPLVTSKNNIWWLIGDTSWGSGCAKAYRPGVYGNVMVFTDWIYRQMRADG
T1 sequence (P05981 163-417 limits assumed): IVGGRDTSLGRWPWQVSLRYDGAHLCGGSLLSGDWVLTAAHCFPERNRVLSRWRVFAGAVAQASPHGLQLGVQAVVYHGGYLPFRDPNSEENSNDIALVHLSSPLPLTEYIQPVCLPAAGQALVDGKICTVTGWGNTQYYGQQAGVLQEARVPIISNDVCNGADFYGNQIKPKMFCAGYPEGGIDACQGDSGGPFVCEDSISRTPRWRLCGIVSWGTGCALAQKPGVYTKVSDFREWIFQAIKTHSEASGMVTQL
T1 sequence (P05981 1-162 partner limits assumed): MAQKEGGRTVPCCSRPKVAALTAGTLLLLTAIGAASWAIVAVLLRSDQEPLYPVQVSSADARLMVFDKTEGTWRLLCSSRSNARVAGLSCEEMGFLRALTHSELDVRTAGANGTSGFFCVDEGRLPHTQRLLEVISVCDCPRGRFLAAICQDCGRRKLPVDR

For `CC(=O)N[C@H]1Cc2ccc(cc2)OCCCC[C@@H](C(=O)N[C@@H](CCCNC(=N)N)C(=O)c2nc3ccccc3s2)NC(=O)[C@@H](Cc2c[nH]c3ccccc23)NC1=O` [8b], the half-inhibitory concentration (IC50) at hepsin (30 min incubation, Boc-QAR-AMC at Km, read-out: Hepsin IC50) was 0.54 nM; on HGFA, 3.3 nM.
On to `CC(=O)N[C@@H](Cc1cncn1COCc1ccccc1)C(=O)N[C@@H](CCC(C)C)C(=O)N[C@@H](CCCNC(=N)N)C(=O)c1nc2ccccc2s1` [JH1142-2, N-[(S)-1-[(1,3-benzothiazol-2-yl)carbonyl]-4-guanidinobutyl](S)-2-[(S)-2-acetylamino-3-{1-[(benzyloxy)methyl]-5-imidazolyl}propionylamino]-5-methylhexanamide], for which the half-maximal inhibitory concentration (IC50) at matriptase (read-out: Matriptase IC50) turned out to be 1.16 nM; on hepsin (read-out: Hepsin IC50) it was 0.93 nM; on HGFA it was 131 nM.
On to `C=CCOC(=O)CC[C@H](NC(=O)[C@H](CCC(C)C)NC(C)=O)C(=O)N[C@@H](Cc1ccc(F)cc1)C(=O)N[C@@H](CCCNC(=N)N)C(=O)c1nc2ccccc2s1` [MF1140, allyl (S)-4-[(S)-1-acetylamino-4-methylpentylcarbonylamino]-4-[N-(S)-2-(p-fluorophenyl)-1-[N-(S)-1-[(1,3-benzothiazol-2-yl)carbonyl]-4-guanidinobutylcarbamoyl]ethylcarbamoyl]butyrate], for which the 50% inhibitory concentration (IC50) at matriptase was found to be 2.89 nM; against hepsin, 11 nM; at TMPRSS2, 0.001 nM.
For `N=C(N)NCCC[C@H](NC(=O)[C@H](Cc1cccc(F)c1)NC(=O)OCC1c2ccccc2-c2ccccc21)C(=O)c1nc2ccccc2s1` [MF1141, (S)-2-(m-fluorophenyl)-1-[N-(S)-1-[(1,3-benzothiazol-2-yl)carbonyl]-4-guanidinobutylcarbamoyl] ethyl (9H-fluoren-9-yl)methanecarbamate], the IC50 was 1140 nM at matriptase (read-out: Matriptase IC50), 346 nM at hepsin (read-out: Hepsin IC50) and 12.8 nM at TMPRSS2 (read-out: TMPRSS2 IC50).
Regarding `N=C(N)NCCC[C@H](NC(=O)[C@H](CC1CCCCC1)NC(=O)OCC1c2ccccc2-c2ccccc21)C(=O)c1nc2ccccc2s1` [MF1142, (S)-2-cyclohexyl-1-[N-(S)-1-[(1,3-benzothiazol-2-yl)carbonyl]-4-guanidinobutylcarbamoyl] ethyl (9H-fluoren-9-yl)methanecarbamate], the results for the IC50 at matriptase (read-out: Matriptase IC50), on hepsin (read-out: Hepsin IC50) and at TMPRSS2 (read-out: TMPRSS2 IC50) were 2810 nM, 2390 nM and 0.04 nM, respectively.
For `N=C(N)NCCC[C@H](NC(=O)[C@H](Cc1cccc2ccccc12)NC(=O)OCC1c2ccccc2-c2ccccc21)C(=O)c1nc2ccccc2s1` [MF1144, (S)-2-(1-naphthyl)-1-[N-(S)-1-[(1,3-benzothiazol-2-yl)carbonyl]-4-guanidinobutylcarbamoyl] ethyl (9H-fluoren-9-yl)methanecarbamate], the half-inhibitory concentration (IC50) at matriptase (read-out: Matriptase IC50) was above 20000 nM; on hepsin (read-out: Hepsin IC50), 1410 nM; on TMPRSS2 (read-out: TMPRSS2 IC50), above 20000 nM.
Turning to `N=C(N)NCCC[C@H](NC(=O)[C@H](CCC1CCCCC1)NC(=O)OCC1c2ccccc2-c2ccccc21)C(=O)c1nc2ccccc2s1` [MF1149, (S)-3-cyclohexyl-1-[N-(S)-1-[(1,3-benzothiazol-2-yl)carbonyl]-4-guanidinobutylcarbamoyl] propyl (9H-fluoren-9-yl)methanecarbamate], the IC50 at matriptase (read-out: Matriptase IC50) was 18 nM; at hepsin (read-out: Hepsin IC50) it was 2310 nM; at TMPRSS2 (read-out: TMPRSS2 IC50) it was above 20000 nM.
`CCC[C@H](NC(=O)OCC1c2ccccc2-c2ccccc21)C(=O)N[C@@H](CCCNC(=N)N)C(=O)c1nc2ccccc2s1` [MF1150, (S)-1-[N-(S)-1-[(1,3-benzothiazol-2-yl)carbonyl]-4-guanidinobutylcarbamoyl] butyl (9H-fluoren-9-yl)methanecarbamate]: the results for the IC50 on matriptase (read-out: Matriptase IC50), at hepsin (read-out: Hepsin IC50) and at TMPRSS2 (read-out: TMPRSS2 IC50) were 5.44 nM, 29.5 nM and 19.3 nM, respectively.
`N=C(N)NCCC[C@H](NC(=O)[C@H](CCc1ccccc1)NC(=O)OCC1c2ccccc2-c2ccccc21)C(=O)c1nc2ccccc2s1` [MF1152, (S)-1-[N-(S)-1-[(1,3-benzothiazol-2-yl)carbonyl]-4-guanidinobutylcarbamoyl]-3-phenylpropyl (9H-fluoren-9-yl)methanecarbamate]: the IC50 is 47.4 nM on matriptase (read-out: Matriptase IC50), above 20000 nM at hepsin (read-out: Hepsin IC50) and 200 nM on TMPRSS2 (read-out: TMPRSS2 IC50).
Consider `N=C(N)NCCC[C@H](NC(=O)[C@H](Cc1cn(Cc2ccccc2)cn1)NC(=O)OCC1c2ccccc2-c2ccccc21)C(=O)c1nc2ccccc2s1` [MF1158, (S)-2-(1-benzyl-4-imidazolyl)-1-[N-(S)-1-[(1,3-benzothiazol-2-yl)carbonyl]-4-guanidinobutylcarbamoyl] ethyl (9H-fluoren-9-yl)methanecarbamate], for which the IC50 was 39.9 nM at matriptase (read-out: Matriptase IC50), above 20000 nM at hepsin (read-out: Hepsin IC50) and 68.7 nM at TMPRSS2 (read-out: TMPRSS2 IC50).
With `N=C(N)NCCC[C@H](NC(=O)[C@H](CCCCOCc1ccccc1)NC(=O)OCC1c2ccccc2-c2ccccc21)C(=O)c1nc2ccccc2s1` [MF1165, (S)-5-(benzyloxy)-1-[N-(S)-1-[(1,3-benzothiazol-2-yl)carbonyl]-4-guanidinobutylcarbamoyl] pentyl (9H-fluoren-9-yl)methanecarbamate], the results for the IC50 on matriptase (read-out: Matriptase IC50), at hepsin (read-out: Hepsin IC50) and on TMPRSS2 (read-out: TMPRSS2 IC50) were 31.1 nM, 0.1 nM and 0.864 nM, respectively.
For the molecule `N=C(N)NCCC[C@H](NC(=O)[C@H](Cc1csc2ccccc12)NC(=O)OCc1ccccc1)C(=O)c1nc2ccccc2s1` [MF1168, (S)-2-(1-benzothiophen-3-yl)-1-[N-(S)-1-[(1,3-benzothiazol-2-yl)carbonyl]-4-guanidinobutylcarbamoyl] ethyl-phenylmethanecarbamate], the concentration for half-maximal inhibition (IC50) is above 20000 nM at matriptase (read-out: Matriptase IC50), above 20000 nM at hepsin (read-out: Hepsin IC50) and 0.264 nM on TMPRSS2 (read-out: TMPRSS2 IC50).
For the molecule `N=C(N)NCCC[C@H](NC(=O)[C@H](CCC(=O)OCc1ccccc1)NC(=O)OCc1ccccc1)C(=O)c1nc2ccccc2s1` [MF1169, benzyl (S)-4-[benzyl(oxycarbonylamino)]-4-[N-(S)-1-[(1,3-benzothiazol-2-yl)carbonyl]-4-guanidinobutylcarbamoyl] butyrate], the IC50 on matriptase (read-out: Matriptase IC50) is 290 nM; at hepsin (read-out: Hepsin IC50), above 20000 nM; at TMPRSS2 (read-out: TMPRSS2 IC50), 75 nM.
`N=C(N)NCCC[C@H](NC(=O)[C@@H](NC(=O)OCc1ccccc1)c1cccs1)C(=O)c1nc2ccccc2s1` [MF1177, (R)-[N-(S)-1-[(1,3-benzothiazol-2-yl)carbonyl]-4-guanidinobutylcarbamoyl] (2-thienyl)methyl-phenylmethanecarbamate]: the concentration for half-maximal inhibition (IC50) is 37.6 nM at matriptase (read-out: Matriptase IC50), 6.07 nM at hepsin (read-out: Hepsin IC50) and 0.211 nM at TMPRSS2 (read-out: TMPRSS2 IC50).
As to `N=C(N)NCCC[C@H](NC(=O)[C@H](Cc1cccs1)NC(=O)OCC1c2ccccc2-c2ccccc21)C(=O)c1nc2ccccc2s1` [MF1184, (S)-1-[N-(S)-1-[(1,3-benzothiazol-2-yl)carbonyl]-4-guanidinobutylcarbamoyl]-2-(2-thienyl)ethyl (9H-fluoren-9-yl)methanecarbamate], the results for the 50% inhibitory concentration (IC50) at matriptase (read-out: Matriptase IC50), on hepsin (read-out: Hepsin IC50) and at TMPRSS2 (read-out: TMPRSS2 IC50) were 58.7 nM, 118 nM and 0.466 nM, respectively.
In the case of `CCC(C)[C@H](NC(C)=O)C(=O)N[C@@H](CCSC)C(=O)N[C@@H](Cc1ccccc1)C(=O)N[C@H](CCCNC(=N)N)C(=O)c1nc2ccccc2s1` (stereo partly drawn) [MM4027-1, N-[(S)-3-(methylthio)-1-[N-(S)-1-[N-(R)-1-[(1,3-benzothiazol-2-yl)carbonyl]-4-guanidinobutylcarbamoyl]-2-phenylethylcarbamoyl]propyl](2S)-2-acetylamino-3-methylvaleramide], the 50% inhibitory concentration (IC50) at HGFA is 234 nM; on TMPRSS2 (read-out: TMPRSS2 IC50), 5.63 nM.
`CCC(C)[C@H](NC(C)=O)C(=O)N[C@@H](CCSC)C(=O)N[C@@H](Cc1ccccc1)C(=O)N[C@@H](CCCNC(=N)N)C(=O)c1nc2ccccc2s1` (stereo partly drawn) [MM4027-2, N-[(S)-3-(methylthio)-1-[N-(S)-1-[N-(S)-1-[(1,3-benzothiazol-2-yl)carbonyl]-4-guanidinobutylcarbamoyl]-2-phenylethylcarbamoyl]propyl](2S)-2-acetylamino-3-methylvaleramide]: the IC50 was 0.51 nM on matriptase, 1.31 nM at hepsin (read-out: Hepsin IC50) and 2.96 nM on TMPRSS2 (read-out: TMPRSS2 IC50).
Take `CCC(C)[C@H](NC(C)=O)C(=O)N[C@H](Cc1cc2ccccc2[nH]1)C(=O)N[C@@H](Cc1ccccc1)C(=O)N[C@@H](CCCNC(=N)N)C(=O)c1nc2ccccc2s1` (stereo partly drawn) [MM4038, N-[(R)-2-(2-indolyl)-1-[N-(S)-1-[N-(S)-1-[(1,3-benzothiazol-2-yl)carbonyl]-4-guanidinobutylcarbamoyl]-2-phenylethylcarbamoy1]ethyl](2S)-2-acetylamino-3-methylvaleramide]: the IC50 on hepsin (read-out: Hepsin IC50) amounted to 12.2 nM; at HGFA it was 66.2 nM; at TMPRSS2 (read-out: TMPRSS2 IC50), 0.04 nM.
On to `N=C(N)NCCC[C@H](NC(=O)[C@H](Cc1ccccc1)NC(=O)[C@H](CCC(N)=O)NC(=O)OCc1ccccc1)C(=O)c1nc2ccccc2s1` [ZFH9141], for which the IC50 worked out at 1.02 nM on matriptase (read-out: Matriptase IC50), 1.25 nM on hepsin (read-out: Hepsin IC50) and 0.418 nM at TMPRSS2 (read-out: TMPRSS2 IC50).

Source of the values: patent US20250171495A1, “MUTLI-TARGETED SERINE PROTEASE INHIBITORS FOR TREATMENT OF CANCER AND VIRAL INFECTION” (Washington University, priority 2023, published 2025).
